{
  "source": "paper PMC8121762",
  "about": "“Peptidomics of enteroendocrine cells and characterisation of potential effects of a novel preprogastrin derived-peptide on glucose tolerance in lean mice” (Peptides, 2021)",
  "assay": "Pharmacokinetics studies in mice (i.v. and s.c. bolus, plasma LC–MS/MS)",
  "format": "in vivo",
  "details": "mouse; for AUC / bioavailability: both sexes, C57BL/6 N J, plasma LC–MS/MS; for AUC: tail vein blood over 90 min; for Clearance: s.c.",
  "procedure": "Male and female mice aged between 12–18 weeks old were used for these studies. Gast p59−79, ChgA 435−462a and Sst 25−36 were administered intravenously (i.v.) at 1 mg/kg and subcutaneously (s.c.) at various doses (see Fig. 7A, B and C for details on specific doses for each peptide). Blood samples were collected using EDTA coated microvette tubes (Starsedt, Leicester, UK) from the tail vein at various time points over 90 min. Blood was centrifuged (2000 g, 10 min, 4 °C) and the plasma separated. A 0.1 M sodium citrate (Sigma-Aldrich) buffer (adjusted to pH 3 with citric acid (Sigma-Aldrich)) was added to the plasma at a dilution of 1 in 10 to prevent degradation of Gast p59−79 and Sst 25−36. Plasma was stored -70 °C till extraction.\nOn the day of analysis, plasma samples were thawed, spiked with a stable isotope labelled version of Gast p59−79, ChgA 435−462a or Sst 25−36, and crashed with 200 μL 80 % ACN. After centrifuging, supernatants were removed and dried under gaseous nitrogen at 40 °C using a SPE Dry evaporator system (Biotage, Upsalla, Sweden). SPE was performed as described previously.\nA Xevo TQ-XS triple quadrupole mass spectrometer coupled to H-class Aquity UPLC system enabled high throughput and targeted sample analysis. The column used was a Waters HSS T3 2.1 × 50 mm column at 60 °C and flowing at 350 μL/min. LC–MS/MS analysis was performed using positive ESI with a spray voltage of 3 kV, desolvation temperature 600°C, gas flow rate 1000 L/h and cone voltage of 40 V. Solvent A was 0.1 % FA in water (v/v) and Solvent B was 0.1 % FA in ACN (v/v). Each sample (40 μL per sample) was injected onto the column for 30 s with starting conditions set at 90 % A and 10 % B before the % B was increased to 50 % over the course of 3.5 min. The column was flushed with 90 % B for 1.5 min before initial conditions were restored. Total run time per sample was 5.5 min. Table 1 details the specifications used to quantify Gast p59−79, ChgA 435−462a, Sst 25−36 and their stable isotope labelled versions on a Xevo TQ-XS mass spectrometer.\nRaw data files obtained on the Xevo TQ-XS triple quadrupole mass spectrometer were analysed using TargetLynx XS v4.2 software (Waters). Peptides were quantified by integrating the corresponding peaks and normalised to an internal standard if available. For pharmacokinetics studies, the concentration of peptide was estimated by comparing against a calibration line. SAAM II v2.2.1 (The Epsilon Group) with a Rosenbrock integrator and no maximum number of iterations was used to create a model for Gast p59−79 distribution and elimination upon single dose administration to mice.",
  "note": "Where no end group is shown, it is not given here.",
  "data": [
    {"substance": "APSDPRLRQFLQ [Sst 25−36]", "values": [
      {"measurement": "AUC", "setting": "sc, 10 mg/kg", "result": 3.3, "unit": "ng·h/mL"},
      {"measurement": "detection in plasma after s.c. injection", "setting": "in vivo, sc, 10 mg/kg", "result": "only detectable at low concentrations"},
      {"measurement": "half-life in vivo (in words)", "setting": "pilot data", "result": "very short half-life"},
      {"measurement": "Clearance", "setting": "10 mg/kg", "result": 3030, "unit": "mL/h/kg"}
    ]},
    {"substance": "AEDQELESLSAIEAELEKVAHQLQALRR-NH2 [ChgA 435−462a]", "values": [
      {"measurement": "AUC", "setting": "iv, 1 mg/kg", "result": 362, "unit": "ng·h/mL"},
      {"measurement": "bioavailability", "setting": "sc, 1 mg/kg", "result": 46.7, "unit": "%"},
      {"measurement": "AUC", "setting": "sc, 1 mg/kg", "result": 169, "unit": "ng·h/mL"},
      {"measurement": "bioavailability", "setting": "sc, 3 mg/kg", "result": 50.4, "unit": "%"},
      {"measurement": "AUC", "setting": "sc, 3 mg/kg", "result": 547, "unit": "ng·h/mL"},
      {"measurement": "mass delivery rate required to obtain steady state concentration of 1 nM", "setting": "estimated from PK data (SAAM II model), osmotic pump infusion", "result": 0.29, "unit": "mg/kg/day"},
      {"measurement": "Clearance", "setting": "1 mg/kg", "result": 5.92, "unit": "mL/h/kg"},
      {"measurement": "Clearance", "setting": "3 mg/kg", "result": 5.48, "unit": "mL/h/kg"}
    ]}
  ]
}
